A word on the Kd: it is the constant that tells how readily two partners part at equilibrium. As a reminder, the IC50 is the point on the concentration scale where inhibition reaches its midpoint. Usually EC50 stands for the midpoint of the concentration-response curve.

Assay [1] addresses T1, RAF kinases (Homo sapiens, UniProt P04049). As to conditions: read-out: RAF1 Kd; RAF1.
The target in assay [2] is RAF kinases (Homo sapiens, UniProt P15056). The following applies: read-out: BRAF WT Kd; BRAF WT.
Assay [3] concerns the target T2, RAF kinases (Homo sapiens, UniProt P15056, V600E). The following applies: read-out: BRAF V600E Kd; BRAF V600E.
Assay [4] deals with MEK1 phosphorylation in the A375 human melanoma cell line. The assay is described as follows: cells. The following applies: A-375, read-out: pMEK IC50.
In another assay the test system is A375 cells. The experiment in a line: cells. As to conditions: Homo sapiens, A-375, read-out: A375 Viability EC50.
The target of assay [5] is T1, RAF kinases. The experiment in a line: biochemical.
In assay [6] the target is T2, RAF kinases. The experiment in a line: biochemical.

Where two headings read alike, the source gives them in different places. Where only a bound is given, the exact number is not on record here.

T1 sequence (P04049 whole entry): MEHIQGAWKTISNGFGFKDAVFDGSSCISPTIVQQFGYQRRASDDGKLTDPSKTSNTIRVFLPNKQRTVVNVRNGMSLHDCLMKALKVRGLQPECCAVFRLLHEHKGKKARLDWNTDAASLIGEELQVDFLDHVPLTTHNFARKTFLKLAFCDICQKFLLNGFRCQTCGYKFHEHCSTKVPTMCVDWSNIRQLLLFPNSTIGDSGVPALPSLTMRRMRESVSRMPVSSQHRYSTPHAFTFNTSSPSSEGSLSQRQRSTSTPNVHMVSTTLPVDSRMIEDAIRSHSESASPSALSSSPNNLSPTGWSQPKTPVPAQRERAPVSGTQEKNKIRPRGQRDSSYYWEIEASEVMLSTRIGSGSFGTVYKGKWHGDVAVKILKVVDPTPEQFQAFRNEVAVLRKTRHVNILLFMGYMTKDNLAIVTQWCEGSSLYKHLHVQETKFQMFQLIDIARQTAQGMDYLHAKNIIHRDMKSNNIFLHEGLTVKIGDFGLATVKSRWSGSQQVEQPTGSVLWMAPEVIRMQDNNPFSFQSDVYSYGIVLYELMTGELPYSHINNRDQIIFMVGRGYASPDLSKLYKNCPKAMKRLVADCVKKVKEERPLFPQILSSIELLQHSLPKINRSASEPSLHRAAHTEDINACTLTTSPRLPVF
T2 sequence (P15056 whole entry V600E): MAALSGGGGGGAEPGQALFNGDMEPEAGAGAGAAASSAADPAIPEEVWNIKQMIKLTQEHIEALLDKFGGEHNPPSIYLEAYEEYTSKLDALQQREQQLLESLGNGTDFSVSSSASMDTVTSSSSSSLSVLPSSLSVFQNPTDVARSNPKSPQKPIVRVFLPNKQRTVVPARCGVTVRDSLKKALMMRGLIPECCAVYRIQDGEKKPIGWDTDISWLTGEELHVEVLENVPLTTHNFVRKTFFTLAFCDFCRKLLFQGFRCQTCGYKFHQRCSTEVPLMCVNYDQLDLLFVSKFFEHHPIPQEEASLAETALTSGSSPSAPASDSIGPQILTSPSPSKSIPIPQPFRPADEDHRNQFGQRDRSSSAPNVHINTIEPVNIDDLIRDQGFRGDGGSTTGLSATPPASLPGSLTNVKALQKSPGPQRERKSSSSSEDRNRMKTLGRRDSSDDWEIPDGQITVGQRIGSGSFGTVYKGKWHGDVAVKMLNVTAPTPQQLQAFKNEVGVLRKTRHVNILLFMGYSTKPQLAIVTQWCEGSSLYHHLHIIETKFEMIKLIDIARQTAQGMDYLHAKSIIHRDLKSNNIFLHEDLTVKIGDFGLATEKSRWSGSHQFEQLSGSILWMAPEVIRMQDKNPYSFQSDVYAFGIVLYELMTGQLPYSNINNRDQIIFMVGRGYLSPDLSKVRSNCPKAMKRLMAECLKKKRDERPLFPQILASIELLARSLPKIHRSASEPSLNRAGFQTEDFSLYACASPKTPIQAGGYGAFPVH
RAF kinases (Homo sapiens, UniProt P15056), sequence (P15056 whole entry): as the sequence (P15056 whole entry V600E) above, with E600V counted along it
Protocol for A375 cells: The following day, the medium was replaced with 0.5% FBS in M3 for overnight incubation. […] The cells were incubated with compound or control for 72 hours at 37° C. under 10% CO2. Following incubation, Cell Titer Blue reagent (Promega) was added to each well containing compounds or controls, and then incubated for 3 hours at 37° C. under 10% CO2. Proliferation was measured by fluorescence with excitation at 560 nm and emission at 590 nm using SoftMax Pro.

Take `COc1cc2c(Oc3cccc(NC(=O)Nc4cc(C(C)(C)C(F)(F)F)on4)c3)ncnc2cc1O` [Ex 263, 1-(3-(7-hydroxy-6-methoxyquinazolin-4-yloxy)phenyl)-3-(5-(1,1,1-trifluoro-2-methylpropan-2-yl)isoxazol-3-yl)urea]: the Kd at RAF kinases [1], on RAF kinases [2] and on RAF kinases [3] was less than 250 nM each time. The IC50 in assay [4] is less than 250 nM. Besides, the EC50 in the assay with A375 cells lay in the range of 500 to 1000 nM.

With `COc1cc2ncnc(Oc3cc(NC(=O)Nc4cc(C(C)(C)C)on4)c(F)cc3F)c2cc1OC` [Ex 270, 1-(5-tert-butylisoxazol-3-yl)-3-(5-(6,7-dimethoxyquinazolin-4-yloxy)-2,4-difluorophenyl)urea], the Kd on RAF kinases [1], on RAF kinases [2] and at RAF kinases [3] was less than 250 nM in each case. In assay [4], the IC50 is less than 250 nM. In addition, the 50% effective concentration (EC50) in the assay on A375 cells was less than 250 nM.

For the compound `COCCOc1cc2ncnc(Oc3cccc(NC(=O)Nc4ccc(C(F)(F)F)c(OC)c4)c3)c2cc1OC` [Ex 223, 1-(3-methoxy-4-(trifluoromethyl)phenyl)-3-(3-(6-methoxy-7-(2-methoxyethoxy)quinazolin-4-yloxy)phenyl)urea], the values for the Kd at RAF kinases [5], at RAF kinases [6] and on RAF kinases [2] were 500 to 1000 nM, 250 to 500 nM and greater than 1000 nM, respectively. In assay [4], the IC50 was greater than 1000 nM. The 50% effective concentration (EC50) with A375 cells was greater than 1000 nM.

With `CCOc1cc2ncnc(Sc3cccc(NC(=O)Nc4cc(C(C)(CF)CF)on4)c3)c2cc1OC` [Example 388, 1-(5-(1,3-difluoro-2-methylpropan-2-yl)isoxazol-3-yl)-3-(3-(7-ethoxy-6-methoxyquinazolin-4-ylthio)phenyl)urea], the dissociation constant (Kd) on RAF kinases [1], at RAF kinases [2] and on RAF kinases [3] was less than 250 nM throughout. The IC50 in assay [4] is 250 to 500 nM. The 50% effective concentration (EC50) in the assay on A375 cells was in the range of 250 to 500 nM.

On to `COCCOc1cc2ncnc(Oc3cccc(NC(=O)Nc4cccc(C(C)(C)C#N)c4)c3)c2cc1OC` [Ex 280, 1-(3-(2-cyanopropan-2-yl)phenyl)-3-(3-(6-methoxy-7-(2-methoxyethoxy)quinazolin-4-yloxy)phenyl)urea], for which the Kd on RAF kinases [1], on RAF kinases [2] and on RAF kinases [3] was less than 250 nM each time. Besides, the IC50 in assay [4] lay in the range of 500 to 1000 nM. The EC50 in the assay on A375 cells was greater than 1000 nM.

In the case of `CCOc1cc2c(Sc3cccc(NC(=O)Nc4cc(C(C)(C)F)no4)c3)ncnc2cc1OC` [Ex 394, 1-(3-(6-ethoxy-7-methoxyquinazolin-4-ylthio)phenyl)-3-(3-(2-fluoropropan-2-yl)isoxazol-5-yl)urea], the Kd on RAF kinases [1], at RAF kinases [2] and on RAF kinases [3] was less than 250 nM throughout. In assay [4], the concentration for half-maximal inhibition (IC50) is less than 250 nM. Besides, the 50% effective concentration (EC50) in the assay on A375 cells lay within 250 to 500 nM.

Turning to `COCCOc1cc2ncnc(Sc3cccc(NC(=O)Nc4cc(C(C)C)on4)c3)c2cc1OC` [Ex 232, 1-(5-isopropylisoxazol-3-yl)-3-(3-(6-methoxy-7-(2-methoxyethoxy)quinazolin-4-ylthio)phenyl)urea], the Kd on RAF kinases [1], on RAF kinases [2] and on RAF kinases [3] was less than 250 nM throughout. For the same compound, the IC50 in assay [4] was 250 to 500 nM. For the same compound, in the assay with A375 cells, the EC50 is greater than 1000 nM.

As to `COCCOc1cc2ncnc(Oc3cccc(NC(=O)Nc4cc(C5CCCC5)on4)c3)c2cc1OC` [Ex 219, 1-(5-cyclopentylisoxazol-3-yl)-3-(3-(6-methoxy-7-(2-methoxyethoxy)quinazolin-4-yloxy)phenyl)urea], the dissociation constant Kd at RAF kinases [1], at RAF kinases [2] and at RAF kinases [3] was less than 250 nM in each case. Also, the 50% inhibitory concentration (IC50) in assay [4] was less than 250 nM. Further, the EC50 in the assay with A375 cells fell in the range of 250 to 500 nM.

Take `CCOc1cc2c(Oc3cccc(NC(=O)Nc4cc(C(C)(CF)CF)on4)c3)ncnc2cc1OC` [Ex 393, 1-(5-(1,3-difluoro-2-methylpropan-2-yl)isoxazol-3-yl)-3-(3-(6-ethoxy-7-methoxyquinazolin-4-yloxy)phenyl)urea]: the Kd on RAF kinases [1], at RAF kinases [2] and at RAF kinases [3] was less than 250 nM each time. The IC50 in assay [4] was less than 250 nM. Also, in the assay on A375 cells, the EC50 is less than 250 nM.

As to `CCc1cc(NC(=O)Nc2cccc(Sc3ncnc4cc(OC)c(OC)cc34)c2)n(-c2ccccc2)n1` [Ex 399, 1-(3-(6,7-dimethoxyquinazolin-4-ylthio)phenyl)-3-(3-ethyl-1-phenyl-1H-pyrazol-5-yl)urea], the Kd at RAF kinases [1], at RAF kinases [2] and at RAF kinases [3] was less than 250 nM in each case. Further, in assay [4], the concentration for half-maximal inhibition (IC50) was in the range of 250 to 500 nM. Also, the EC50 in the assay with A375 cells fell in the range of 250 to 500 nM.

As to `COCCOc1cc2ncnc(Oc3cccc(NC(=O)Nc4cc(C(C)(C)C)nn4-c4ccc(C)cc4)c3)c2cc1OC` [Ex 276, 1-(3-tert-butyl-1-p-tolyl-1H-pyrazol-5-yl)-3-(3-(6-methoxy-7-(2-methoxyethoxy)quinazolin-4-yloxy)phenyl)urea], the dissociation constant Kd at RAF kinases [1] is greater than 1000 nM; at RAF kinases [2] it was greater than 1000 nM; on RAF kinases [3], less than 250 nM. Besides, in assay [4], the IC50 is less than 250 nM.

Turning to `COc1cc2ncnc(Sc3cccc(NC(=O)Nc4cc(C(C)(C)C)nn4-c4ccc(C)cc4C)c3)c2cc1OC` [Ex 284, 1-(3-tert-butyl-1-(2,4-dimethylphenyl)-1H-pyrazol-5-yl)-3-(3-(6,7-dimethoxyquinazolin-4-ylthio)phenyl)urea], the Kd at RAF kinases [1], on RAF kinases [2] and on RAF kinases [3] was greater than 1000 nM each time. In assay [4], the 50% inhibitory concentration (IC50) was less than 250 nM. Besides, in the assay on A375 cells, the EC50 was greater than 1000 nM.

Take `COc1cc2c(Oc3cccc(NC(=O)Nc4cc(C(C)(C)F)no4)c3)ncnc2cc1OCCN1CCOCC1` [Ex 251, 1-(3-(2-fluoropropan-2-yl)isoxazol-5-yl)-3-(3-(6-methoxy-7-(2-morpholinoethoxy)quinazolin-4-yloxy)phenyl)urea]: the Kd is 250 to 500 nM at RAF kinases [5], less than 250 nM on RAF kinases [2] and less than 250 nM on RAF kinases [3]. Further, the half-maximal inhibitory concentration (IC50) in assay [4] fell in the range of 250 to 500 nM. Further, the EC50 in the assay on A375 cells is greater than 1000 nM.

With `COc1cc2ncnc(Sc3cccc(NC(=O)Nc4cc(C(C)(C)C#N)no4)c3)c2cc1OC` [Ex 381, 1-(3-(2-cyanopropan-2-yl)isoxazol-5-yl)-3-(3-(6,7-dimethoxyquinazolin-4-ylthio)phenyl)urea], the Kd at RAF kinases [1], on RAF kinases [2] and at RAF kinases [3] was less than 250 nM throughout. The 50% inhibitory concentration (IC50) in assay [4] was less than 250 nM.

For the compound `COc1cc2ncnc(Oc3cccc(NC(=O)Nc4cc(C(C)(C)C)nn4-c4cccc(F)c4)c3)c2cc1OC` [Ex 359, 1-(3-tert-butyl-1-(3-fluorophenyl)-1H-pyrazol-5-yl)-3-(3-(6,7-dimethoxyquinazolin-4-yloxy)phenyl)urea], the Kd is greater than 1000 nM on RAF kinases [1], greater than 1000 nM at RAF kinases [2] and less than 250 nM at RAF kinases [3]. For the same compound, the concentration for half-maximal inhibition (IC50) in assay [4] is less than 250 nM.

Regarding `COCCOc1cc2ncnc(Sc3cccc(NC(=O)Nc4cc(C(C)(C)C)nn4-c4ccccc4)c3)c2cc1OC` [Ex 236, 1-(3-tert-butyl-1-phenyl-1H-pyrazol-5-yl)-3-(3-(6-methoxy-7-(2-methoxyethoxy)quinazolin-4-ylthio)phenyl)urea], the Kd at RAF kinases [1], at RAF kinases [2] and on RAF kinases [3] was greater than 1000 nM in each case. Besides, the 50% inhibitory concentration (IC50) in assay [4] is less than 250 nM.

Turning to `COc1cc2ncnc(Oc3cc(NC(=O)Nc4cc(C(C)(C)C(F)(F)F)on4)ccc3F)c2cc1OC` [Ex 266, 1-(3-(6,7-dimethoxyquinazolin-4-yloxy)-4-fluorophenyl)-3-(5-(1,1,1-trifluoro-2-methylpropan-2-yl)isoxazol-3-yl)urea], the Kd at RAF kinases [1], at RAF kinases [2] and on RAF kinases [3] was less than 250 nM each time. The half-inhibitory concentration (IC50) in assay [4] is less than 250 nM.

Turning to `COc1cc2ncnc(Sc3cccc(NC(=O)Nc4cc(C(C)(C)C)nn4Cc4ccccc4)c3)c2cc1OC` [Ex 358, 1-(1-benzyl-3-tert-butyl-1H-pyrazol-5-yl)-3-(3-(6,7-dimethoxyquinazolin-4-ylthio)phenyl)urea], the values for the dissociation constant (Kd) at RAF kinases [1], at RAF kinases [2] and at RAF kinases [3] were greater than 1000 nM, greater than 1000 nM and less than 250 nM, respectively. In addition, the concentration for half-maximal inhibition (IC50) in assay [4] lay within 250 to 500 nM.

Turning to `COc1cc2ncnc(Oc3cc(NC(=O)Nc4cc(C(C)(CF)CF)on4)ccc3F)c2cc1OC` [Ex 294, 1-(5-(1,3-difluoro-2-methylpropan-2-yl)isoxazol-3-yl)-3-(3-(6,7-dimethoxyquinazolin-4-yloxy)-4-fluorophenyl)urea], the Kd at RAF kinases [1], on RAF kinases [2] and at RAF kinases [3] was less than 250 nM each time. Moreover, in assay [4], the 50% inhibitory concentration (IC50) is less than 250 nM.

Consider `COc1cc2ncnc(Oc3cccc(NC(=O)Nc4cc(C(C)(C)C)nn4-c4ccccc4)c3F)c2cc1OC` [Ex 295, 1-(3-tert-butyl-1-phenyl-1H-pyrazol-5-yl)-3-(3-(6,7-dimethoxyquinazolin-4-yloxy)-2-fluorophenyl)urea], for which the values for the dissociation constant (Kd) on RAF kinases [5], on RAF kinases [2] and at RAF kinases [3] were 500 to 1000 nM, greater than 1000 nM and less than 250 nM, respectively. In addition, in assay [4], the 50% inhibitory concentration (IC50) was 500 to 1000 nM. Also, the EC50 in the assay with A375 cells is greater than 1000 nM.

Consider `COc1cc2ncnc(Sc3cccc(NC(=O)Nc4cc(C(C)(C)C)nn4-c4ccc(C(C)(C)C)cc4)c3)c2cc1OC` [Ex 370, 1-(3-tert-butyl-1-(4-tert-butylphenyl)-1H-pyrazol-5-yl)-3-(3-(6,7-dimethoxyquinazolin-4-ylthio)phenyl)urea], for which the Kd on RAF kinases [1] was greater than 1000 nM; at RAF kinases [2] it was greater than 1000 nM; at RAF kinases [3], less than 250 nM. Besides, the half-maximal inhibitory concentration (IC50) in assay [4] is less than 250 nM.

Source of the values: patent US8618289B2 (Ambit Biosciences Corporation, priority 2008, dated 2013).
